Laboratory results as given in patent US10815230B2, “Casein kinase 1 delta inhibitor” (ELECTROPHORETICS LIMITED, priority 2015, dated 2020).

Key:
Test in all cases: KINOMEscan binding assay
Details in all cases: read-out: % Ctrl @ 10000 nM
MINK = MINK (Homo sapiens, UniProt Q8N4C8)
FGFR1 = FGFR1 (Homo sapiens, UniProt P11362)
TNK1 = TNK1 (Homo sapiens, UniProt Q13470)
BRK = BRK (Homo sapiens, UniProt Q13882)
[1] = target: ABL1 (T315I) phosphorylated (Homo sapiens, UniProt P00519, T315I)
TNK2 = TNK2 (Homo sapiens, UniProt Q07912)
FLT4 = FLT4 (Homo sapiens, UniProt P35916)
FLT4, sequence (P35916 25-1363): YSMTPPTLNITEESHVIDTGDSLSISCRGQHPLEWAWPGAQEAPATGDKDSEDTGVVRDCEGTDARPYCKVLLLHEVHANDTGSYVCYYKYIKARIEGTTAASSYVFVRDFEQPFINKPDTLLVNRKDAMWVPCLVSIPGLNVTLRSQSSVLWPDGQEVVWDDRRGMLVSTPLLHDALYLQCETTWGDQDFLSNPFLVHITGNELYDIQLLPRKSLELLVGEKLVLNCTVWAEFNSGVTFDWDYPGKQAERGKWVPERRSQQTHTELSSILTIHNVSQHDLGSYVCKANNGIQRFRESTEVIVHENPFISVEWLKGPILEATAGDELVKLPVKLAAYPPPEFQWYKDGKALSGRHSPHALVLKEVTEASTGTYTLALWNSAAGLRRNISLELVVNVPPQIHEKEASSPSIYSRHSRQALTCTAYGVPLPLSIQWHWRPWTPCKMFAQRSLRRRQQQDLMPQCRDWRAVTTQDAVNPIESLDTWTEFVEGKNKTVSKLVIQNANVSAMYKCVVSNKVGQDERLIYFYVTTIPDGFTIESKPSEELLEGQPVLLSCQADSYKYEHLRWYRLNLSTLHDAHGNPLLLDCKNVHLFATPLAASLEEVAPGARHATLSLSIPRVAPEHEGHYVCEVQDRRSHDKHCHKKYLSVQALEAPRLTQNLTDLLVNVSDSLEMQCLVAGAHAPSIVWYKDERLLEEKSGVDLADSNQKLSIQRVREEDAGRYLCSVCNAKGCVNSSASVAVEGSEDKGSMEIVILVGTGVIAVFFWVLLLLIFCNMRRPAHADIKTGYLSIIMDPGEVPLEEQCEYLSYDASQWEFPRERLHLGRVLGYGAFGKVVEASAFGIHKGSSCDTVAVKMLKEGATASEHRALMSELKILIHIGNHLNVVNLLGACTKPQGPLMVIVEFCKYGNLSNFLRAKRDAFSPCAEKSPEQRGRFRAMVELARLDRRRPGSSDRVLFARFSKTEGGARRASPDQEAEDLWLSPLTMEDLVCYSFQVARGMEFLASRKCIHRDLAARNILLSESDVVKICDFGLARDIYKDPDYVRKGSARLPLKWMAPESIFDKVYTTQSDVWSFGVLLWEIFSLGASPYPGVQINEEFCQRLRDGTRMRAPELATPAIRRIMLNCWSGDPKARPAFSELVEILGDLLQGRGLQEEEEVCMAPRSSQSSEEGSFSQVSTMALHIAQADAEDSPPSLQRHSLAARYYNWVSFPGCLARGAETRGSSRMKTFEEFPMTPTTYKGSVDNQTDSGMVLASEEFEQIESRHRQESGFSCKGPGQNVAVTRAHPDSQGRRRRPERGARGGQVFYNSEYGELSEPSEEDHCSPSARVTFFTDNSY

NDR2 = NDR2 (Homo sapiens, UniProt Q9Y2H1)
LZK = target: T1, LZK (Homo sapiens, UniProt O43283)
T1 construct: T7 phage fusion (most assays) or DNA label after HEK293 expression; purchased DiscoveRx (KINOMEscan, LeadHunter Discovery services); host or cells: T7 phage in E. coli (BL21-derived) or HEK293
T1 sequence (O43283 whole entry, the tested form may be a part): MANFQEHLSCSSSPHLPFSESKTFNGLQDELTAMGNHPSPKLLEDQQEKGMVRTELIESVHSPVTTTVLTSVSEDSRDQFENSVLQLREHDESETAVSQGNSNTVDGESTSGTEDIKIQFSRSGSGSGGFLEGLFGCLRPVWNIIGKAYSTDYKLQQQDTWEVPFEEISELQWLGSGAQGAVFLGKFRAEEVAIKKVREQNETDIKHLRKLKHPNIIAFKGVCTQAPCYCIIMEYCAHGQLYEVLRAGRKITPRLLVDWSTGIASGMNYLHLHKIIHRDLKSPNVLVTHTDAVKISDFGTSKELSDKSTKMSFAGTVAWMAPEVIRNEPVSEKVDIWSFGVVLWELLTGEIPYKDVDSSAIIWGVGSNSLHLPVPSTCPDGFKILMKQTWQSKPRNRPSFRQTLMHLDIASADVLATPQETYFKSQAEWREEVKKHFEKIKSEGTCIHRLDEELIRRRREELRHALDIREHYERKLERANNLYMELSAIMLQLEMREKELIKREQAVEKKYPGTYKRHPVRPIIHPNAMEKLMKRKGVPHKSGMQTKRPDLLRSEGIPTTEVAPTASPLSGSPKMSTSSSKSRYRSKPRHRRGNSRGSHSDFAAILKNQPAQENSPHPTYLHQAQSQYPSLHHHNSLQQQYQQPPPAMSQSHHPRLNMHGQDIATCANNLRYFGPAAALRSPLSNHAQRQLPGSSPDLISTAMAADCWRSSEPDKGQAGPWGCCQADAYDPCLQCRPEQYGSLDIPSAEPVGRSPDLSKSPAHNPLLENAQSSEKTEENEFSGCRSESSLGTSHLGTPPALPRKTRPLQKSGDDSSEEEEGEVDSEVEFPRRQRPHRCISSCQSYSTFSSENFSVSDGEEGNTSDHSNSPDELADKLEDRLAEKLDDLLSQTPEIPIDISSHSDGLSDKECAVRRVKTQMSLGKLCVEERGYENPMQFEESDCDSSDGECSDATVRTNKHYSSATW

PRKX = PRKX (Homo sapiens, UniProt P51817)
PRKX, sequence (P51817 whole entry): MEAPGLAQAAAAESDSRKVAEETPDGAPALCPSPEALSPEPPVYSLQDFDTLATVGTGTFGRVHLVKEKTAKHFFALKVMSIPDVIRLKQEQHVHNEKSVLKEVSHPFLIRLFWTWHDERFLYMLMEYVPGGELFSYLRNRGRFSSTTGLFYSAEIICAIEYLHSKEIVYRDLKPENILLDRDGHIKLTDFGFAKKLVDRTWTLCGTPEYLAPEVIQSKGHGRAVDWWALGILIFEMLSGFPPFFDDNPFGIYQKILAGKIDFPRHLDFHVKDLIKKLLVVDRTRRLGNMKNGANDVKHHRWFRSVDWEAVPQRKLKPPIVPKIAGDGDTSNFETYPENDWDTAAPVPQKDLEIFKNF

EGFR (S752-I759del) = EGFR (S752-I759del) (Homo sapiens, UniProt P00533, DEL752-759)
CAMK1G = CAMK1G (Homo sapiens, UniProt Q96NX5)
PFPK5 P. falciparum = PFPK5 P. falciparum (Plasmodium falciparum, UniProt P61075)
CAMK2A = CAMK2A (Homo sapiens, UniProt Q9UQM7)
HCK = HCK (Homo sapiens, UniProt P08631)
PRKCI = PRKCI (Homo sapiens, UniProt P41743)
BRSK1 = BRSK1 (Homo sapiens, UniProt Q8TDC3)
KIT (L576P) = KIT (L576P) (Homo sapiens, UniProt P10721, L576P)
[2] = target: RPS6KA5 Kin.Dom.1-N-terminal (Homo sapiens, UniProt O75582)
p38-gamma = p38-gamma (Homo sapiens, UniProt P53778)
CAMK2B = CAMK2B (Homo sapiens, UniProt Q13554)
[3] = target: RSK3 Kin.Dom.1-N-terminal (Homo sapiens, UniProt Q15349)
CSNK1A1L = CSNK1A1L (Homo sapiens, UniProt Q8N752)
SIK = SIK (Homo sapiens, UniProt P57059)
CDK11 = CDK11 (Homo sapiens, UniProt Q9BWU1)
NEK2 = NEK2 (Homo sapiens, UniProt P51955)
CLK4 = CLK4 (Homo sapiens, UniProt Q9HAZ1)
AAK1 = AAK1 (Homo sapiens, UniProt Q2M2I8)
CSNK1G2 = CSNK1G2 (Homo sapiens, UniProt P78368)
PIK3CA (C420R) = PIK3CA (C420R) (Homo sapiens, UniProt P42336, C420R)
MYLK = MYLK (Homo sapiens, UniProt Q15746)
LIMK2 = LIMK2 (Homo sapiens, UniProt P53671)
CDK8 = CDK8 (Homo sapiens, UniProt P49336)
PRKCQ = PRKCQ (Homo sapiens, UniProt Q04759)
[4] = target: JAK1 (JH1domain-catalytic) (Homo sapiens, UniProt P23458)
JAK1 (JH1domain-catalytic), sequence (P23458 875-1153 limits assumed): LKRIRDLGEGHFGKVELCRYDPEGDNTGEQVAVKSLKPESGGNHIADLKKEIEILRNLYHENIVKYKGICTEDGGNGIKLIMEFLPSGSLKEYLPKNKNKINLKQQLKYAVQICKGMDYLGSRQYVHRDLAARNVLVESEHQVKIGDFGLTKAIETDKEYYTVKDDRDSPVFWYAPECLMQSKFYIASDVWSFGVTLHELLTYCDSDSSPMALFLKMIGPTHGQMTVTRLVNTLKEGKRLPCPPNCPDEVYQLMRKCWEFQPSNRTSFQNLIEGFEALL

IRAK4 = IRAK4 (Homo sapiens, UniProt Q9NWZ3)
ERN1 = ERN1 (Homo sapiens, UniProt O75460)
MAK = MAK (Homo sapiens, UniProt P20794)
MAK, sequence (P20794 whole entry): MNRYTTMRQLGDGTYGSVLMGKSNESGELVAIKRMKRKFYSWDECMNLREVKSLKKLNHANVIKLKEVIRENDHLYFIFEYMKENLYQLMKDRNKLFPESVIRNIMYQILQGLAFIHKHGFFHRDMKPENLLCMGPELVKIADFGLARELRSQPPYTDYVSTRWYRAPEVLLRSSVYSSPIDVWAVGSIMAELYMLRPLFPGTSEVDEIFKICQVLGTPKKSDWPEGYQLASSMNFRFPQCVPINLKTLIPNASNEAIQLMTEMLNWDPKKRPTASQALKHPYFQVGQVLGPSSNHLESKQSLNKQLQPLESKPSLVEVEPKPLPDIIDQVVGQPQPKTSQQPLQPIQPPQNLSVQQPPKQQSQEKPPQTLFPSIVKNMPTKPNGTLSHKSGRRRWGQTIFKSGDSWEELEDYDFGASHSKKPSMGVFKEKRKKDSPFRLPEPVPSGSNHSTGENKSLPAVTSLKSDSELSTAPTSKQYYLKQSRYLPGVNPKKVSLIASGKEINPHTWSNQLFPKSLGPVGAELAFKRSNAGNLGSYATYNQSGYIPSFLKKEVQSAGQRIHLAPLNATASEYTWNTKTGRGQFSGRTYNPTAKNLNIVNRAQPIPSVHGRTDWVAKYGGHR

EGFR = EGFR (Homo sapiens, UniProt P00533)
EGFR, sequence (P00533 25-1210): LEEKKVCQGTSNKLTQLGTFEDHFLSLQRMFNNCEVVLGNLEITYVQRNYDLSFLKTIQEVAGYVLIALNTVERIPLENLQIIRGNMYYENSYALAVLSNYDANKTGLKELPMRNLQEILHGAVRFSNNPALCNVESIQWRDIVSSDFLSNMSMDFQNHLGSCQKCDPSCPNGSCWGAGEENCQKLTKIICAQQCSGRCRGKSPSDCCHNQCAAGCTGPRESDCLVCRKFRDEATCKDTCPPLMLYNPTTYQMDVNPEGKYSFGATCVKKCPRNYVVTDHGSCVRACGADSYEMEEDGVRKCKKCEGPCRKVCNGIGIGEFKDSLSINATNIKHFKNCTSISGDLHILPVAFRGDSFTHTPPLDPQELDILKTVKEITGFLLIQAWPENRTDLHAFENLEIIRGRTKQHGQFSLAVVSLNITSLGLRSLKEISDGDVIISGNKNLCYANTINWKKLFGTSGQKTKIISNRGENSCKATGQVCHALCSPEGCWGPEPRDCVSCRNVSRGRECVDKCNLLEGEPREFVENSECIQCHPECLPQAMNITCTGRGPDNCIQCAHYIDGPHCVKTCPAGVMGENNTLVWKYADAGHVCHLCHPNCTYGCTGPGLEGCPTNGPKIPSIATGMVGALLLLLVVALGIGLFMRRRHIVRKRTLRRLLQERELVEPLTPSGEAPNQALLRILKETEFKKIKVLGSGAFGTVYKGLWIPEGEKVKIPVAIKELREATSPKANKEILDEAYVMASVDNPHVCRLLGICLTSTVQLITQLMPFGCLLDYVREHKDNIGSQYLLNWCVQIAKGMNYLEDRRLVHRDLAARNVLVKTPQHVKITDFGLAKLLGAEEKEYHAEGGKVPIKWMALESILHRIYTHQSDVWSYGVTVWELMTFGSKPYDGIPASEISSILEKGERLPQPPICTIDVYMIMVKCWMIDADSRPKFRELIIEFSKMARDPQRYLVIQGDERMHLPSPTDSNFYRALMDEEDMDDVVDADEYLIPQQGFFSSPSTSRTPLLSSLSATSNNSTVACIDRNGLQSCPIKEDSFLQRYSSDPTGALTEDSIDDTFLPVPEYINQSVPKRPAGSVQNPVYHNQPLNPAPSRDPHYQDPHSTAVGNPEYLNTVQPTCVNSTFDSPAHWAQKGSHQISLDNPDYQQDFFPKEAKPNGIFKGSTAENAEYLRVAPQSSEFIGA

[5] = target: RPS6KA4 Kin.Dom.2-C-terminal (Homo sapiens, UniProt O75676)
RPS6KA4 Kin.Dom.2-C-terminal, sequence (O75676 411-674 limits assumed): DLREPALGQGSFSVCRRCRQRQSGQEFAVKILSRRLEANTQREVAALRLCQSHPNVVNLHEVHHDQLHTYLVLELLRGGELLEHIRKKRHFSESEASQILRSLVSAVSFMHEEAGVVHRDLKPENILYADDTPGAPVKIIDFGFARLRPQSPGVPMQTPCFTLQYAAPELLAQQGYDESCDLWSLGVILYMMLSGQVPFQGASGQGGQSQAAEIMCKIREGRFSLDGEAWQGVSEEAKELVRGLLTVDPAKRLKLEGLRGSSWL

STK33 = STK33 (Homo sapiens, UniProt Q9BYT3)

With `Nc1ncc(-c2nc3ccccc3o2)c(-c2ccncc2)n1` [Comparative Compound 324, 5-(1,3-benzoxazol-2-yl)-4-(pyridine-4-yl)pyrimidin-2-amine] the remaining binding at 10 µM (MINK) was 56%, the remaining binding at 10 µM (FGFR1) was 98% and the remaining binding at 10 µM (TNK1) was 97%. It also gave a remaining binding at 10 µM (BRK) of 99%, a remaining binding at 10 µM [1] of 85% and a remaining binding at 10 µM (TNK2) of 100%. It also gave a remaining binding at 10 µM (FLT4) of 79%, a remaining binding at 10 µM (NDR2) of 96% and a remaining binding at 10 µM (LZK) of 89%. The remaining binding at 10 µM (PRKX) was 100%, the remaining binding at 10 µM (EGFR (S752-I759del)) was 84% and the remaining binding at 10 µM (CAMK1G) was 89%. It also gave a remaining binding at 10 µM (PFPK5 P. falciparum) of 100%, a remaining binding at 10 µM (CAMK2A) of 99% and a remaining binding at 10 µM (HCK) of 100%. The remaining binding at 10 µM (PRKCI) was 65%, the remaining binding at 10 µM (BRSK1) was 98% and the remaining binding at 10 µM (KIT (L576P)) was 57%. For the same compound, the remaining binding at 10 µM [2] was 95%, the remaining binding at 10 µM (p38-gamma) was 61% and the remaining binding at 10 µM (CAMK2B) was 100%. It also gave a remaining binding at 10 µM [3] of 100%, a remaining binding at 10 µM (CSNK1A1L) of 81% and a remaining binding at 10 µM (SIK) of 100%. The remaining binding at 10 µM (CDK11) was 100%, the remaining binding at 10 µM (NEK2) was 98% and the remaining binding at 10 µM (CLK4) was 83%. For the same compound, the remaining binding at 10 µM (AAK1) was 83%, the remaining binding at 10 µM (CSNK1G2) was 72% and the remaining binding at 10 µM (PIK3CA (C420R)) was 99%. It also gave a remaining binding at 10 µM (MYLK) of 86%, a remaining binding at 10 µM (LIMK2) of 100% and a remaining binding at 10 µM (CDK8) of 100%. It also gave a remaining binding at 10 µM (PRKCQ) of 100%, a remaining binding at 10 µM [4] of 88% and a remaining binding at 10 µM (IRAK4) of 100%. The remaining binding at 10 µM (ERN1) was 88%, the remaining binding at 10 µM (MAK) was 86% and the remaining binding at 10 µM (EGFR) was 100%. It also gave a remaining binding at 10 µM [5] of 100% and a remaining binding at 10 µM (STK33) of 77%.
Work on `CNc1c(C(N)=O)c2ccccn2c1C(=O)c1ccc(F)cc1` [Compound A, 2-methyl-amino-3-[(4-fluorophenyl)carbonyl]indolizine-1-carboxamide] yielded a remaining binding at 10 µM (MINK) of 57%, a remaining binding at 10 µM (FGFR1) of 72% and a remaining binding at 10 µM (TNK1) of 99%. The remaining binding at 10 µM (BRK) was 92%, the remaining binding at 10 µM [1] was 100% and the remaining binding at 10 µM (TNK2) was 81%. It also gave a remaining binding at 10 µM (FLT4) of 62%, a remaining binding at 10 µM (NDR2) of 85% and a remaining binding at 10 µM (LZK) of 100%. The remaining binding at 10 µM (PRKX) was 100%, the remaining binding at 10 µM (EGFR (S752-I759del)) was 18% and the remaining binding at 10 µM (CAMK1G) was 65%. The remaining binding at 10 µM (PFPK5 P. falciparum) was 100%, the remaining binding at 10 µM (CAMK2A) was 70% and the remaining binding at 10 µM (HCK) was 65%. For the same compound, the remaining binding at 10 µM (PRKCI) was 69%, the remaining binding at 10 µM (BRSK1) was 100% and the remaining binding at 10 µM (KIT (L576P)) was 29%. For the same compound, the remaining binding at 10 µM [2] was 96%, the remaining binding at 10 µM (p38-gamma) was 79% and the remaining binding at 10 µM (CAMK2B) was 62%. It also gave a remaining binding at 10 µM [3] of 83%, a remaining binding at 10 µM (CSNK1A1L) of 1.2% and a remaining binding at 10 µM (SIK) of 83%. It also gave a remaining binding at 10 µM (CDK11) of 95%, a remaining binding at 10 µM (NEK2) of 92% and a remaining binding at 10 µM (CLK4) of 76%. The remaining binding at 10 µM (AAK1) was 62%, the remaining binding at 10 µM (CSNK1G2) was 99% and the remaining binding at 10 µM (PIK3CA (C420R)) was 94%. It also gave a remaining binding at 10 µM (MYLK) of 71%, a remaining binding at 10 µM (LIMK2) of 100% and a remaining binding at 10 µM (CDK8) of 99%. For the same compound, the remaining binding at 10 µM (PRKCQ) was 88%, the remaining binding at 10 µM [4] was 73% and the remaining binding at 10 µM (IRAK4) was 98%. For the same compound, the remaining binding at 10 µM (ERN1) was 84%, the remaining binding at 10 µM (MAK) was 59% and the remaining binding at 10 µM (EGFR) was 49%. For the same compound, the remaining binding at 10 µM [5] was 100% and the remaining binding at 10 µM (STK33) was 72%.
